The source of these data is ChEMBL document CHEMBL3046449, “Selective Herbicidal Activities of Ethyl 5-(4, 6-Dimethoxypyrimidin-2-ylcarbamoylsulfamoyl)-1-methylpyrazole-4-carboxylate and Its Related Compounds” (J Pestic Sci, 1990).

The test system of data set [1] is Pontederia vaginalis. The data set is described as follows: Herbicidal activity against Monochoria vaginalis assessed as growth inhibition in paddy condition under greenhouse at 5 g/ha measured after 18 days by preemergence activity assay. The note with it: pre-emergence, 432 h, read-out: GI. The class given is functional.
In data set [2] the test system is Rotala indica. The data set can be described thus: Herbicidal activity against Rotala indica assessed as growth inhibition in paddy condition under greenhouse at 5 g/ha measured after 18 days by preemergence activity assay. Type of data set: functional. The settings on record: pre-emergence, 432 h, read-out: GI.
Data set [3] concerns Schoenoplectiella juncoides. The data set can be described thus: Herbicidal activity against Schoenoplectiella juncoides assessed as growth inhibition in paddy condition under greenhouse at 5 g/ha measured after 18 days by preemergence activity assay. Type of data set: functional. The note with it: pre-emergence, 432 h, read-out: GI.
Data set [4] relates to Echinochloa crus-galli. The data set is described as follows: Herbicidal activity against Echinochloa crus-galli (barnyard grass) assessed as growth inhibition in paddy condition under greenhouse at 5 g/ha measured after 18 days by preemergence activity assay. The settings on record: pre-emergence, 432 h, read-out: GI. The class given is functional.
Data set [5] is described as follows: Phytotoxicity against Oryza sativa (rice) assessed as growth inhibition under greenhouse at 5 g/ha measured after 18 days by preemergence activity assay. Type of data set: organism-based. The note with it: in vivo, read-out: GI.

For `CCCCn1ncc(C(=O)OCC)c1S(=O)(=O)NC(=O)Nc1nc(OC)cc(OC)n1`, the inhibition of growth at 5 g/ha in data set [1], in data set [2], in data set [3] and in data set [4] was below 5% throughout. Also, in data set [5], the inhibition at 432 h is below 5%.
`COc1cc(OC)nc(NC(=O)NS(=O)(=O)c2c(Br)cnn2C)n1`: the inhibition of growth at 5 g/ha in data set [1] was 70%; in data set [2], 40%; in data set [3], 40%; in data set [4], below 5%. The inhibition at 432 h in data set [5] was below 5%.
In the case of `CCOC(=O)c1cn[nH]c1S(=O)(=O)NC(=O)Nc1nc(OC)cc(OC)n1`, the inhibition of growth at 5 g/ha in data set [1] was found to be 70%; in data set [2] it was 70%; in data set [3], 70%; in data set [4], 5%. The inhibition at 432 h in data set [5] is 5%.
For the compound `COc1cc(OC)nc(NC(=O)NS(=O)(=O)c2c([N+](=O)[O-])cnn2C)n1`, the inhibition of growth at 5 g/ha in data set [1], in data set [2], in data set [3] and in data set [4] was below 5% each time. Also, the inhibition at 432 h in data set [5] was below 5%.
Consider `CCC(=O)c1cnn(C)c1S(=O)(=O)NC(=O)Nc1nc(OC)cc(OC)n1`, for which the inhibition of growth at 5 g/ha came out at 40% in data set [1], 40% in data set [2], 20% in data set [3] and 5% in data set [4]. In addition, the inhibition at 432 h in data set [5] is below 5%.
Regarding `COc1cc(OC)nc(NC(=O)NS(=O)(=O)c2c(C)cnn2C)n1`, the inhibition of growth at 5 g/ha in data set [1] is 40%; in data set [2] it was 70%; in data set [3], 20%; in data set [4] it was 20%. The inhibition at 432 h in data set [5] is below 5%.
For the compound `CCOC(=O)c1cnn(C)c1S(=O)(=O)NC(=O)Nc1nc(OC)nc(OC)n1`, the inhibition of growth at 5 g/ha in data set [1], in data set [2], in data set [3] and in data set [4] was below 5% throughout. Besides, the inhibition at 432 h in data set [5] is 5%.
As to `CCOC(=O)c1c(CC)nn(C)c1S(=O)(=O)NC(=O)Nc1nc(OC)cc(OC)n1`, the inhibition of growth at 5 g/ha in data set [1] was 70%; in data set [2], above 90%; in data set [3], 40%; in data set [4] it was 20%. Further, in data set [5], the inhibition at 432 h is below 5%.
For `COC(=O)c1cnn(C)c1S(=O)(=O)NC(=O)Nc1nc(OC)cc(OC)n1`, in that order: above 90%, above 90%, 70%, 40% and below 5%.
`CCOC(=O)c1c(OC)nn(C)c1S(=O)(=O)NC(=O)Nc1nc(OC)cc(OC)n1`: the inhibition of growth at 5 g/ha in data set [1] was above 90%; in data set [2], above 90%; in data set [3], 70%; in data set [4] it was 40%. Besides, the inhibition at 432 h in data set [5] was below 5%.
`CCOC(=O)c1cnn(CC)c1S(=O)(=O)NC(=O)Nc1nc(OC)cc(OC)n1`: the inhibition of growth at 5 g/ha in data set [1] is above 90%; in data set [2], above 90%; in data set [3], 70%; in data set [4], 5%. For the same compound, the inhibition at 432 h in data set [5] came out at 5%.
Turning to `CCOC(=O)c1c(C(F)(F)F)nn(C)c1S(=O)(=O)NC(=O)Nc1nc(OC)cc(OC)n1`, the inhibition of growth at 5 g/ha in data set [1] is below 5%; in data set [2], 20%; in data set [3], below 5%; in data set [4], below 5%. The inhibition at 432 h in data set [5] is below 5%.
On to `CCOC(=O)c1c([N+](=O)[O-])nn(C)c1S(=O)(=O)NC(=O)Nc1nc(OC)cc(OC)n1`, for which the inhibition of growth at 5 g/ha in data set [1] is 20%; in data set [2] it was 70%; in data set [3], 5%; in data set [4] it was below 5%. Besides, the inhibition at 432 h in data set [5] came out at 5%.
Turning to `COc1cc(OC)nc(NC(=O)NS(=O)(=O)c2c(C(=O)O)cnn2C)n1`, the inhibition of growth at 5 g/ha in data set [1], in data set [2], in data set [3] and in data set [4] was below 5% throughout. The inhibition at 432 h in data set [5] is below 5%.
For `CCOC(=O)c1c(C)nn(C)c1S(=O)(=O)NC(=O)Nc1nc(OC)cc(OC)n1`, the inhibition of growth at 5 g/ha was above 90% in data set [1], above 90% in data set [2], above 90% in data set [3] and 70% in data set [4]. In addition, the inhibition at 432 h in data set [5] is below 5%.
For `CCOC(=O)c1c(Cl)nn(C)c1S(=O)(=O)NC(=O)Nc1nc(OC)cc(OC)n1`, the inhibition of growth at 5 g/ha was above 90% in data set [1], above 90% in data set [2], 70% in data set [3] and 20% in data set [4]. The inhibition at 432 h in data set [5] was below 5%.
For `COc1cc(OC)nc(NC(=O)NS(=O)(=O)c2c(C#N)cnn2C)n1`, the inhibition of growth at 5 g/ha in data set [1], in data set [2], in data set [3] and in data set [4] was below 5% throughout. In addition, in data set [5], the inhibition at 432 h was below 5%.
For the compound `CCOC(=O)c1nn(C)c(S(=O)(=O)NC(=O)Nc2nc(OC)cc(OC)n2)c1C(=O)OCC`, the inhibition of growth at 5 g/ha in data set [1], in data set [2], in data set [3] and in data set [4] was below 5% each time. Besides, in data set [5], the inhibition at 432 h is below 5%.
For the compound `CCCCOC(=O)c1cnn(C)c1S(=O)(=O)NC(=O)Nc1nc(OC)cc(OC)n1`, the inhibition of growth at 5 g/ha in data set [1], in data set [2], in data set [3] and in data set [4] was below 5% each time. Besides, the inhibition at 432 h in data set [5] is below 5%.
For `CCOC(=O)c1cnn(-c2ccccc2)c1S(=O)(=O)NC(=O)Nc1nc(OC)cc(OC)n1`, the inhibition of growth at 5 g/ha in data set [1] was 40%; in data set [2], 70%; in data set [3], 20%; in data set [4] it was below 5%. The inhibition at 432 h in data set [5] was below 5%.
As for `COc1cc(OC)nc(NC(=O)NS(=O)(=O)c2c(S(=O)(=O)N(C)C)cnn2C)n1`, the inhibition of growth at 5 g/ha in data set [1] is 70%; in data set [2] it was above 90%; in data set [3] it was above 90%; in data set [4], 40%. Besides, the inhibition at 432 h in data set [5] is above 90%.
For `CCCOC(=O)c1cnn(C)c1S(=O)(=O)NC(=O)Nc1nc(OC)cc(OC)n1`, the inhibition of growth at 5 g/ha in data set [1] is above 90%; in data set [2], above 90%; in data set [3], 70%; in data set [4] it was below 5%. In addition, the inhibition at 432 h in data set [5] was below 5%.
For `CCOC(=O)c1cnn(C)c1S(=O)(=O)NC(=O)Nc1nc(C)cc(OC)n1`, the inhibition of growth at 5 g/ha was 70% in data set [1], above 90% in data set [2], 70% in data set [3] and 5% in data set [4]. For the same compound, the inhibition at 432 h in data set [5] was below 5%.
As for `CCOC(=O)c1cnn(C)c1S(=O)(=O)NC(=O)Nc1nc(C)cc(C)n1`, the inhibition of growth at 5 g/ha in data set [1] is below 5%; in data set [2], 40%; in data set [3], below 5%; in data set [4], below 5%. For the same compound, in data set [5], the inhibition at 432 h stood at 5%.
As for `COc1cc(OC)nc(NC(=O)NS(=O)(=O)c2c(C(=O)N(C)C)cnn2C)n1`, the inhibition of growth at 5 g/ha in data set [1], in data set [2], in data set [3] and in data set [4] was below 5% in each case. Moreover, the inhibition at 432 h in data set [5] was below 5%.
